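Test compounds were applied to cells in 96-well plates for 48 hours at 5 doses. At the GI50, growth is halved.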 Active and inactive are the calls of the source. No stated cut-off is given here; in the data, active = GI50 up to about 1.1 µM and inactive = higher.
What was measured:
Assay in all cases: DTP human tumour cell line panel, 48 h
[1] = tested on: Hs-578T
[2] = tested on: MDA-MB-231
[3] = tested on: MCF7
[4] = tested on: MDA-N
[5] = tested on: DMS-114
[6] = tested on: DLD-1
[7] = tested on: SNB-78
[8] = tested on: LXFL 529

Structure (SMILES)	GI50 [1]	GI50 [2]	GI50 [3]	GI50 [4]	GI50 [5]	GI50 [6]	GI50 [7]	GI50 [8]
O=C1c2cccc3cccc(c23)C(=O)N1O	53 µM (inactive)	> 100 µM (inactive)	37.5 µM (inactive)	91.6 µM (inactive)	–	–	–	–
C/C(=N\NC(=O)c1ccncc1)c1sc(-n2nc(-c3ccccc3)cc2-c2ccccc2)nc1C	> 74.3 µM (inactive)	> 63 µM (inactive)	> 31.6 µM (inactive)	> 100 µM (inactive)	–	–	–	–
CNC(=O)C(C)C1CCC2(C)C=CC(=O)C(C)=C2C1O (centres undefined)	–	–	> 100 µM (inactive)	–	> 100 µM (inactive)	> 100 µM (inactive)	> 100 µM (inactive)	–
C[C@]12CCC(=O)C=C1CC[C@@H]1[C@@H]2[C@@H](O)C[C@@]2(C)[C@H]1CC[C@]2(O)C(=O)COC(=O)C1CCCC1	> 100 µM (inactive)	> 100 µM (inactive)	> 100 µM (inactive)	> 100 µM (inactive)	–	–	–	–
O=c1sc(Nc2ccc3ccccc3c2Cl)nc2ccccc12	57.1 µM (inactive)	> 100 µM (inactive)	> 100 µM (inactive)	–	–	–	–	–
O=C(CC1=NCCN1)c1ccccc1	–	–	> 750 µM (inactive)	–	> 750 µM (inactive)	> 750 µM (inactive)	> 750 µM (inactive)	–
S=c1c2nc[nH]c2ncn1CCSC1=NC=NC2=NC=NC21 (centres undefined)	> 100 µM (inactive)	> 100 µM (inactive)	> 100 µM (inactive)	61.7 µM (inactive)	> 100 µM (inactive)	> 100 µM (inactive)	73.6 µM (inactive)	–
CN(C)CN1C(=O)/C(=N\n2c(S)nnc2-c2ccncc2)c2ccccc21	42.5 µM (inactive)	> 100 µM (inactive)	31.3 µM (inactive)	16.7 µM (inactive)	–	–	–	–
Cc1ncc2c(n1)CCC1=C2OS(=O)(=O)CC1N(C)C (centres undefined)	> 100 µM (inactive)	> 100 µM (inactive)	> 100 µM (inactive)	> 100 µM (inactive)	–	–	–	–
O=C(O)CCCCCCC[C@H]1S[C@H]1CCCCCCO	–	–	–	–	> 100 µM (inactive)	> 100 µM (inactive)	> 100 µM (inactive)	–
CC(=O)c1cc2sc3ccccc3c2[nH]1	–	> 100 µM (inactive)	> 100 µM (inactive)	> 100 µM (inactive)	–	–	–	–
O=C1c2ccccc2C(=O)c2c1sc1nc3ccccc3n21	0.0239 µM (active)	2.02 µM (inactive)	1.86 µM (inactive)	1.79 µM (inactive)	–	–	–	–
COC(=O)c1s/c(=N\C(=S)N(C)C)n(-c2ccccc2)c1C(=O)OC	–	–	–	–	70 µM (inactive)	–	> 100 µM (inactive)	–
Cc1ccc(/C=C2\Cc3c(C)cc(C)cc3C2=O)c(C(=O)O)c1	35.2 µM (inactive)	–	56.2 µM (inactive)	89.3 µM (inactive)	–	–	–	–
COc1ccc(C(=O)/C=C/S/C(=N/C#N)SC)cc1	30.9 µM (inactive)	13.7 µM (inactive)	18.4 µM (inactive)	–	–	–	–	–
COc1cc(OC)nc(-n2c(N)c(C(=O)O)c3ccc([N+](=O)[O-])cc3c2=O)n1	> 100 µM (inactive)	> 100 µM (inactive)	> 100 µM (inactive)	> 100 µM (inactive)	–	–	–	–
CCOC(=O)/C=C(\C(=O)OCC)n1ccc(=O)n(Cc2cnnn2CCCCOC(C)=O)c1=O	16.3 µM (inactive)	15.2 µM (inactive)	4.79 µM (inactive)	22.5 µM (inactive)	–	–	–	–
O=c1ccn(C2OC(COC3CCCCO3)C(OC3CCCCO3)C2OC2CCCCO2)c(=O)n1-c1ccccc1 (centres undefined)	> 100 µM (inactive)	> 100 µM (inactive)	> 100 µM (inactive)	> 100 µM (inactive)	–	–	–	–
COc1cc(/C=C/C(=O)O)ccc1C(=O)OCc1ccccc1	–	–	> 100 µM (inactive)	–	> 100 µM (inactive)	> 100 µM (inactive)	> 100 µM (inactive)	–
Cn1c2ccccc2c2ccc3c(c21)C(=O)C(c1ccccc1)=CC3=O	–	–	–	–	17.9 µM (inactive)	17.9 µM (inactive)	> 100 µM (inactive)	16.1 µM (inactive)
CCCCNC(=O)OCCN=C1c2ccccc2C(Br)C(Br)c2ccccc21 (centres undefined)	36.1 µM (inactive)	29.4 µM (inactive)	58.2 µM (inactive)	15.2 µM (inactive)	–	–	–	–
O=C(Nc1ccn(C2CC(O)C(COC(c3ccccc3)(c3ccccc3)c3ccccc3)O2)c(=O)n1)c1ccccc1 (centres undefined)	2.31 µM (inactive)	3.05 µM (inactive)	2.43 µM (inactive)	1.96 µM (inactive)	–	–	–	–
O=C(CCC(=O)OCC1OC(O)(CC2OC(CO)C(O)C(O)C2O)C(O)C1O)OCc1ccccc1 (centres undefined)	> 100 µM (inactive)	> 100 µM (inactive)	> 100 µM (inactive)	> 100 µM (inactive)	–	–	–	–
O=C(NNc1ccc([N+](=O)[O-])cc1)C1OC(CO)C(O)C1O (centres undefined)	–	–	–	–	> 100 µM (inactive)	47.1 µM (inactive)	> 100 µM (inactive)	38.3 µM (inactive)
COC(=O)C1(OC(=O)Sc2ccccc2)CCN(C)CC1	21.1 µM (inactive)	16.9 µM (inactive)	> 52 µM (inactive)	17.8 µM (inactive)	–	–	–	–
COc1ccc2c(c1)[n+]([O-])c(-c1cccc(Cl)c1)c(N)[n+]2[O-]	–	–	–	–	23.1 µM (inactive)	38.2 µM (inactive)	79.8 µM (inactive)	–
O=c1cnnc2sc(=S)[nH]n12	2.22 µM (inactive)	–	14.7 µM (inactive)	36.2 µM (inactive)	–	–	–	–

Structure (SMILES)	GI50 [1]	GI50 [2]	GI50 [3]	GI50 [4]	GI50 [5]	GI50 [6]	GI50 [7]	GI50 [8]
COc1ccc(/C=C2/SC(c3ccccc3)N(NC(=O)CCCCCCCCC(=O)NN3C(=O)/C(=C\c4ccc(OC)c(OC)c4)SC3c3ccccc3)C2=O)cc1OC (centres undefined)	–	74.6 µM (inactive)	34 µM (inactive)	35.2 µM (inactive)	–	–	–	–
CN(C)CCNC(=O)c1cccc2cc3cc(O)ccc3nc12	–	–	0.473 µM (active)	–	1.37 µM (inactive)	1.42 µM (inactive)	2.47 µM (inactive)	–
CCCCCCCCCCCCCCCCP(=O)([O-])OCC[N+](C)(C)C	15.8 µM (inactive)	20.5 µM (inactive)	17.5 µM (inactive)	15.4 µM (inactive)	–	–	–	–
CC(C)(C)OC(=O)NC(Cc1ccccc1)C(=O)N[C@H]1c2ccsc2/C(=N/O)[C@H]1O (some centres undefined)	–	> 100 µM (inactive)	> 100 µM (inactive)	> 100 µM (inactive)	–	–	–	–
CC(C)C(=O)Nc1cc(C(F)(F)F)ccc1[N+](=O)[O-]	> 100 µM (inactive)	> 100 µM (inactive)	> 100 µM (inactive)	> 100 µM (inactive)	–	–	–	–
O=C1OC(=O)c2c1cc1cc3c(cc1c2-c1ccc2c(c1)OCO2)OCO3	–	> 100 µM (inactive)	> 100 µM (inactive)	> 100 µM (inactive)	–	–	–	–
COC(=O)c1cc2c3c(cc(N(C)C)c2[nH]1)N(C(=O)c1cc2cc(OC)c(OC)c(OC)c2[nH]1)CC3CCl (centres undefined)	–	0.00419 µM (active)	< 0.0025 µM (active)	0.00427 µM (active)	–	–	–	–
CC(C)(C)OC(=O)NC(CSSCC(NC(=O)OC(C)(C)C)C(=O)O)C(=O)O (centres undefined)	> 100 µM (inactive)	> 100 µM (inactive)	> 100 µM (inactive)	> 100 µM (inactive)	–	–	–	–
Cc1cc(C)c(S(=O)(=O)N(CCCCCCN)OCCCN)c(C)c1	13.8 µM (inactive)	10.7 µM (inactive)	19.8 µM (inactive)	17.5 µM (inactive)	–	–	–	–
N#CC(=S)Nc1ccc(F)cc1	–	> 100 µM (inactive)	64.7 µM (inactive)	52.1 µM (inactive)	–	–	–	–
CCOC(=O)C(NC(=O)c1cccc(Cl)c1)(Nc1ccc(S(=O)(=O)Nc2cc(C)on2)cc1)C(F)(F)F (centres undefined)	> 100 µM (inactive)	> 100 µM (inactive)	> 100 µM (inactive)	> 100 µM (inactive)	–	–	–	–
CCCCCCCCCCCCOCCOCCOCCOCCOCCOCC(=O)NC(Cc1ccccc1)C(=O)Oc1ccc([N+](=O)[O-])cc1 (centres undefined)	41.2 µM (inactive)	60.3 µM (inactive)	38.1 µM (inactive)	27.7 µM (inactive)	–	–	–	–
CC1C(/C=C/c2ccoc2)ON2CCCC12 (centres undefined)	–	–	–	–	–	> 100 µM (inactive)	> 100 µM (inactive)	> 100 µM (inactive)
CCN(CC)CCNC(=O)c1cc2cc(NC(=O)c3cc4cc(NC(=O)c5cc6cc(N)ccc6[nH]5)ccc4[nH]3)ccc2[nH]1	> 100 µM (inactive)	> 100 µM (inactive)	–	> 100 µM (inactive)	–	–	–	–
COC(CC1(/C=C/O[Si](C(C)C)(C(C)C)C(C)C)C(=O)N(COCC[Si](C)(C)C)c2ccccc21)OC (centres undefined)	> 100 µM (inactive)	21.1 µM (inactive)	–	24.9 µM (inactive)	–	–	–	–
COc1ccc(-c2nc(-c3cnccn3)n(Cc3ccccc3)n2)cc1	–	> 100 µM (inactive)	> 100 µM (inactive)	> 100 µM (inactive)	–	–	–	–
CN1c2ccccc2N(C(=O)c2ccc([N+](=O)[O-])cc2)C(CC(=O)O)c2cccn21 (centres undefined)	–	–	–	–	> 100 µM (inactive)	> 100 µM (inactive)	> 100 µM (inactive)	> 100 µM (inactive)
COC(C(O)c1ccc2c(c1)OCO2)P(=O)(c1ccccc1)c1ccccc1 (centres undefined)	–	–	–	–	77.3 µM (inactive)	88.7 µM (inactive)	> 100 µM (inactive)	–
COc1ccc(CC2(O)C3CC4CCC2C4C3)cc1 (centres undefined)	85.3 µM (inactive)	–	65.6 µM (inactive)	–	–	–	–	–
C=C1CC[C@](C)(O)[C@@]2(C)CC[C@H]3C(=C(C)C)C(=O)C[C@]3(C)C[C@H]12	> 50 µM (inactive)	> 50 µM (inactive)	28.4 µM (inactive)	–	–	–	–	–
Nc1cc(O)c2cc(/N=N/c3ccc(/N=N/c4ccc(/N=N/c5ccc6cc(S(=O)(=O)O)cc(S(=O)(=O)O)c6c5)c5ccccc45)c4cc(S(=O)(=O)O)ccc34)c(S(=O)(=O)O)cc2c1	–	–	> 100 µM (inactive)	–	–	> 100 µM (inactive)	> 100 µM (inactive)	–
CC1CCC2C(C(=O)O[C@H]3C4CCO[C@@H](OC5OC(CO)C(O)C(O)C5O)C4[C@@]4(CO)O[C@@H]34)=CO[C@@H](OC3OC(CO)C(O)C(O)C3O)C12 (some centres undefined)	> 10 µM (inactive)	> 10 µM (inactive)	> 10 µM (inactive)	> 10 µM (inactive)	–	–	–	–
COC1O[C@H]2CCN(C(=O)OCc3ccccc3)[C@H]2[C@H]1OCc1ccccc1 (some centres undefined)	–	–	–	–	29.6 µM (inactive)	48.3 µM (inactive)	54.8 µM (inactive)	40.2 µM (inactive)
COc1cc(C2c3cc4c(cc3[C@@H](Oc3ccc(F)cc3)C3COC(=O)[C@H]23)OCO4)cc(OC)c1O (some centres undefined)	–	–	0.434 µM (active)	–	–	0.656 µM (active)	–	–
COc1cc(/C=C/C(=O)CC(=O)/C=C/c2ccc(O)c(OC)c2)ccc1O [CURCUMIN]	10.9 µM (inactive)	17.8 µM (inactive)	3.34 µM (inactive)	–	–	–	–	–
CCOc1cc(C=O)ccc1O [ETHYL VANILLIN]	> 100 µM (inactive)	> 100 µM (inactive)	> 100 µM (inactive)	> 100 µM (inactive)	–	–	–	–

Reference: ChEMBL document CHEMBL1201862, “PubChem BioAssay data set” (2004)
